Assay results published in US20230375530A1, “HUMAN BLOOD-BRAIN BARRIER MODEL FOR IMMUNOLOGICAL STUDIES” (WISCONSIN ALUMNI RESEARCH FOUNDATION, priority 2020, published 2023).

What was measured:
Format in all cases: cell-based, human
CD31+ Passage 1 ECs = assay: Dextran accumulation assay (fluid-phase endocytosis); conditions: 10 kDa dextran, 2 h, 37° C., CHIR vs DMSO
Method: A fixable, Alexa Fluor 488-conjugated dextran with an average molecular weight of […] (Invitrogen) was used as a tracer to estimate total fluid-phase endocytosis. Dextran was added at 10 μM to the medium of Passage 1 cultures. Plates were incubated on rotating platforms at 37° C. or 4° C. for 2 h. Medium was removed and cells were washed once with DPBS, and then incubated with Accutase for 10 min at 37° C. Cell suspensions were passed through 40 μm cell strainers into 4× volume of DMEM/F-12 and centrifuged for 5 min, 200×g. Cells were resuspended in MACS buffer and incubated with the CD31-APC antibody (Miltenyi Biotec) for 30 min at 4° C., protected from light. Cell suspensions were brought to a volume of 5 mL with MACS buffer and centrifuged at 4° C. for 5 min, 200×g. Pellets were resuspended in DPBS supplemented with 4% paraformaldehyde and incubated for 15 min at room temperature, protected from light. Cells were centrifuged for 5 min, 200×g. Pellets were resuspended in MACS buffer and analyzed on a BD FACSCalibur flow cytometer (BD Biosciences). FlowJo software was used to gate CD31^+ cells and quantify geometric mean fluorescence intensity and coefficient of variation (CV) of dextran.

Passage 3 ECs = assay: Transendothelial electrical resistance and sodium fluorescein permeability; conditions: CHIR-treated vs DMSO-treated
[1] = system: hPSC-derived Passage 1 and Passage 3 ECs; assay: Western blotting of DMSO- or CHIR-treated ECs
Method: For extended culture, ECs were selectively dissociated and replated as previously described (Nishihara et al., 2020). Cells were incubated with Accutase until endothelial cells appeared round, typically 2-3 min at 37° C. The plate was tapped to release the ECs while SMLCs remained attached, and the EC-enriched cell suspension transferred to 4× volume of DMEM/F-12 and centrifuged for 5 min, 200×g. Cells were resuspended in hECSR medium and seeded on a new collagen IV-coated plate at approximately 3×10^4 cells/cm^2. hECSR medium was replaced every other day until confluent (typically 6 days). The selective dissociation and seeding described above was repeated, and hECSR medium was again replaced every other day until confluent (typically 6 days). We denote this time point “Passage 3.” In one experiment, these steps were repeated for another two passages. Except where indicated, CHIR 99021 or vehicle (DMSO) was included in the hECSR medium for the entire duration of culture.
To enrich samples from Passage 1 cultures for ECs, the Accutase-based selective dissociation method described above was employed. Dissociated cells were centrifuged for 5 min, 200×g, and resulting cell pellets were lysed in RIPA buffer (Rockland Immunochemicals, Pottstown, PA) supplemented with 1× Halt Protease Inhibitor Cocktail (Thermo Scientific). Passage 3 cells were lysed with the above buffer directly on plates. Lysates were centrifuged at 4° C. for 5 min, 14,000×g, and protein concentration in supernatants quantified using the Pierce BCA Protein Assay Kit (Thermo Scientific). Equal amounts of protein were diluted to equal volume with water, mixed with sample buffer, and heated at 95° C. for 5 min, except lysates intended for GLUT-1 Western blotting, which were not heated. Samples were resolved on 4-12% Tris-Glycine gels and transferred to nitrocellulose membranes. Membranes were blocked for 1 h in tris-buffered saline plus 0.1% Tween-20 (TBST) supplemented with 5% non-fat dry milk. Primary antibodies (see Table 6 for antibody information) diluted in TBST plus 5% non-fat dry milk were added to membranes and incubated overnight at 4° C. on a rocking platform. Membranes were washed five times with TBST. Secondary antibodies (see Table 6 for antibody information) diluted in TBST were added to membranes and incubated for 1 h at room temperature on a rocking platform, protected from light. Membranes were washed five times with TBST and imaged using an Odyssey 9120 (LI-COR, Lincoln, NE). Band intensities were quantified using Image Studio software (LI-COR).

Cc1c[nH]c(-c2cnc(NCCNc3ccc(C#N)cn3)nc2-c2ccc(Cl)cc2Cl)n1 [CHIR, CHIR 99021]
distribution of dextran intensities (CD31+ Passage 1 ECs): broadening of the distribution of dextran intensities
geometric mean dextran signal (CD31+ Passage 1 ECs): did not change the geometric mean dextran signal
transendothelial electrical resistance (TEER) (Passage 3 ECs): elevated transendothelial electrical resistance
PLVAP reduction in Western blots ([1]; Passage 1 ECs): not apparent
GLUT-1 and claudin-5 in Western blots ([1]; Passage 1 and Passage 3): upregulation of GLUT-1 and claudin-5
LSR expression ([1]; Passage 1 and Passage 3 ECs): strong increase in LSR expression
PLVAP in Western blots ([1]; Passage 3 ECs, CHIR vs controls): robust downregulation of PLVAP
